From patent US20160271139A1, “METHOD FOR NON-TOXIC TREATMENT FOR DRUG WITHDRAWAL” (DEMERX, INC., priority 2013, published 2016)

Test: Plasma toxicokinetics in dogs, days 1 and 14
Type: in vivo, dog
Details: for T1/2 / Tmax: mean plasma
Experimental: Noribogaine HCl was administered to groups of 4 male and 4 female dogs by single oral gavage daily for 14 days at doses of 0, 0.5, 1.0 and 5.0 mg/kg/day. An additional group of 4 male and 4 female dogs received either the vehicle control or 5.0 mg/kg/day for 14 days and were held for an additional 28 days after cessation of dosing to assess recovery from any potential drug-induced changes. The study was conducted under GLP guidelines and included comprehensive examinations of clinical signs, body weight, clinical pathology parameters, ophthalmologic examinations. ECG recordings and analyses of plasma for bioanalytical measurement of drug levels at appropriate intervals during the study. At the termination of the dosing phase and at the termination of the recovery phase, all dogs were subjected to a complete post-mortem examination including gross examination of major organs and histologic examination of an extensive list of tissues. Additional sections of brain were obtained from cerebrum, cerebellus, brain stem and spinal cord and examined histologically to evaluate potential effects on brain histopathology. In addition, these sections were examined with immunohistochemical stains for GFAP for evidence of gliosis and Calbindin for a more comprehensive examination of cerebellar Purkinje cells.

[1] = female dogs, Gr 2 - 0.5 mg/kg, D1
[2] = female dogs, Gr 2 - 0.5 mg/kg, D14
[3] = female dogs, Gr 3 - 1.0 mg/kg, D1
[4] = female dogs, Gr 3 - 1.0 mg/kg, D14
[5] = female dogs, Gr 4 - 5.0 mg/kg, D1
[6] = female dogs, Gr 4 - 5.0 mg/kg, D14

CC[C@H]1C[C@H]2C[C@H]3c4[nH]c5ccc(O)cc5c4CCN(C2)[C@@H]13 [noribogaine]
T1/2 [1]: 60 min | Tmax [1]: 30 min | T1/2 [2]: 66 min | Tmax [2]: 60 min | T1/2 [3]: 84 min | Tmax [3]: 48 min | T1/2 [4]: 96 min | Tmax [4]: 30 min | T1/2 [5]: 258 min | Tmax [5]: 36 min | T1/2 [6]: 342 min | Tmax [6]: 36 min | Plasma level at 24 h post-dosing (male and female dogs of Group 4 (5.0 mg/kg), Days 1 and 14): significant levels of noribogaine were still detected | Tmax (male dogs, Gr 2 - 0.5 mg/kg, D1): 42 min | Tmax (male dogs, Gr 2 - 0.5 mg/kg, D14): 42 min | Tmax (male dogs, Gr 3 - 1.0 mg/kg, D1): 54 min | Tmax (male dogs, Gr 3 - 1.0 mg/kg, D14): 48 min | Tmax (male dogs, Gr 4 - 5.0 mg/kg, D1): 36 min | Tmax (male dogs, Gr 4 - 5.0 mg/kg, D14): 54 min
